The text below walks through data of patent publication US11957324B2, “Device and method for preparing and administering one-component fibrin sealant” (Ethicon, Inc., priority 2014, dated 2024).

For assay [1], the target named is T1, fibrin (Homo sapiens, UniProt P02671+P02675+P02679). Description: Rate of fibrin clot formation at different GPRP concentrations, cessation of flow upon inversion of the tube. It counts as biochemical. The settings on record: above molar ratio 340:1 GPRP:fibrin (40 mM GPRP at tested fibrinogen concentration).
In assay [2] the target is T1, fibrin. Described as above. Format: biochemical. The settings on record: 3% fibrin, thrombin 100 IU/ml. As for the experimental part:
In the following experiment, the effect of adjusting the concentration of GPRP (SEQ ID NO: 1) inhibitor on fibrin clot formation rate was tested. GPRP (SEQ ID NO: 1) at different concentrations (0.1 mM, 0.2 mM, 0.5 mM, 1 mM, 1.5 mM, 2 mM, 3 mM, 4 mM, and 5 mM) was added to a fibrinogen containing solution (a fixed concentration of 3% w/v, prepared by diluting the BAC2 component of EVICEL® in 40 mM citrate buffer).
To generate fibrin monomers, dimers and/or oligomers, thrombin was added to the mixture; a 10% volume of the thrombin component of EVICEL® was added to yield a final concentration of 100 international units/ml (IU/ml). The rate of fibrin clot formation was measured by cessation of flow of the mixture upon inversion of the tube.

In assay [3] the test system is fibrin clot formation. The settings on record: CaCl2 between about 8 mM and about 30 mM; 5-fold zymogen, 3.5% (w/v) fibrinogen, tissue factor and phospholipids.
Experimental: In the following experiment, the concentration range of calcium ion (CaCl2 concentration) as an inducer to accelerate fibrin clot formation in the zymogen (PPSB concentrate) and fibrinogen comprising mixture (prepared from BAC2) described in Example 1 was explored. In this Example, the zymogen mixture was prepared at a concentration of 10-fold (10 IU FII/ml), as compared to plasma, and mixed in the same volumetric ratio with the same fibrinogen solution as above (final 5-fold concentrations of zymogen, compared to plasma, and 3.5% (w/v) fibrinogen). No EDTA was used. In this experiment, initiation of clotting was performed using a calcium-depleted PT (prothrombin time) reagent comprising tissue factor and phospholipids; a clotting initiator that is typically present in bleeding/injured surfaces and on the surface of activated platelets, respectively. By using both tissue factor and phospholipids, a bleeding surface is simulated. CaCl2 at increasing concentrations was supplemented to the mixture and the clotting time was measured using a Start4 clotting analyzer (Diagnostica Stago).
The target of assay [4] is thrombin (Homo sapiens, UniProt P00734). The settings on record: cited from earlier work.

T1 sequence (P02671 36-644 isoform P02671-2 limits assumed): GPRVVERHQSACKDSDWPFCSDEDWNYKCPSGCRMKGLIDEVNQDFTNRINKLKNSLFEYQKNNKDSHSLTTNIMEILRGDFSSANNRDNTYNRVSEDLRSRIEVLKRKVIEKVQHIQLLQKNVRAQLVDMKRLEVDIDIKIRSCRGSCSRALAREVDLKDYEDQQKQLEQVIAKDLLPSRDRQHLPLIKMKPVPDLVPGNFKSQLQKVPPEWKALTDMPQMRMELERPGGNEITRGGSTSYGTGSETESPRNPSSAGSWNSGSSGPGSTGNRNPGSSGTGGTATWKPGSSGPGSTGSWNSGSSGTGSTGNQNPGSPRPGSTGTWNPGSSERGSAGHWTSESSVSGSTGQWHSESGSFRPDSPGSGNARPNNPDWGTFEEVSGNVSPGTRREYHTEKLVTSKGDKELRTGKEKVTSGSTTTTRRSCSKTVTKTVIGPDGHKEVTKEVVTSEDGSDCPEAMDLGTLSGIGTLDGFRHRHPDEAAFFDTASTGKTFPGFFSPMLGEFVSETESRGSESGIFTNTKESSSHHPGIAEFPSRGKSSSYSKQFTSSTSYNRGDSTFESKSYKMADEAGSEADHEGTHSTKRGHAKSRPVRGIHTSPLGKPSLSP
T1 sequence (P02675 45-491 limits assumed): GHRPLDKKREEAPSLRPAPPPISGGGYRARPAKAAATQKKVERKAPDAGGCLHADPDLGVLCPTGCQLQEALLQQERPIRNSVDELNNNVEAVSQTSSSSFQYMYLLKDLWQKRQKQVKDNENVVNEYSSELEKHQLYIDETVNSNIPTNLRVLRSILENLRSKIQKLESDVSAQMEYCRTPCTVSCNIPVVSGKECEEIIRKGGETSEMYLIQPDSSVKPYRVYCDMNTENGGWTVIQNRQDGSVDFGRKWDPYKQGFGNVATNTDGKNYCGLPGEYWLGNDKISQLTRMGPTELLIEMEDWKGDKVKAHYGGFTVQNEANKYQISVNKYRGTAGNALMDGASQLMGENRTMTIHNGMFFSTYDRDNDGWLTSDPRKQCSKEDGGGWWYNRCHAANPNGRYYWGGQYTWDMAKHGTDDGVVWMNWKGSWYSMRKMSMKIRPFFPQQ
T1 sequence (P02679 27-437 isoform P02679-2 limits assumed): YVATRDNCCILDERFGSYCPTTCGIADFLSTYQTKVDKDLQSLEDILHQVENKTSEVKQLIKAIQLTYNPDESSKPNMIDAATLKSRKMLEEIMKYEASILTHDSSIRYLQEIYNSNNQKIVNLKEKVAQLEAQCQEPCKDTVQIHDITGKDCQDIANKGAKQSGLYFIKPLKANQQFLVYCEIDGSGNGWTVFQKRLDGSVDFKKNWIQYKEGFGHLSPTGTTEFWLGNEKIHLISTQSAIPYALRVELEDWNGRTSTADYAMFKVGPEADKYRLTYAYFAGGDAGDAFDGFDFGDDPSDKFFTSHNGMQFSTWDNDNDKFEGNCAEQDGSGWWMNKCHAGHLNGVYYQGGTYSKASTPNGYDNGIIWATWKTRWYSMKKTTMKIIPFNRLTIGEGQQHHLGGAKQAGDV

As to Gly-Pro-Arg-Pro [GPRP], the “time for which no polymerization was observed” value in assay [1] is > 14 days. In addition, the Time to clot in assay [2] (0.1 mM GPRP) came to 5 s; in assay [2] (0.2 mM GPRP), 7 s; in assay [2] (0.5 mM GPRP), 11 s; in assay [2] (1 mM GPRP) it was 13 s; in assay [2] (1.5 mM GPRP), 22 s; in assay [2] (2 mM GPRP) it was 28 s. Further, the Time to clot in assay [2] (3 mM GPRP) worked out at 150 s; in assay [2] (4 mM GPRP) it was 480 s; in assay [2] (5 mM GPRP), 900 s.

Turning to `[Ca+2].[Cl-].[Cl-]` [CaCl2, calcium chloride], the clotting time in assay [3] was < 20 s.

hirudin: in assay [4], the “binds thrombin (affinity)” value is reported as “picoM range”.
